Among the data in patent publication US8410112B2, “Compounds useful as inhibitors of ATR kinase” (Vertex Pharmaceuticals Incorporated, priority 2008, dated 2013) are Ki values, retold here.

T1 sequence (Q13535 whole entry): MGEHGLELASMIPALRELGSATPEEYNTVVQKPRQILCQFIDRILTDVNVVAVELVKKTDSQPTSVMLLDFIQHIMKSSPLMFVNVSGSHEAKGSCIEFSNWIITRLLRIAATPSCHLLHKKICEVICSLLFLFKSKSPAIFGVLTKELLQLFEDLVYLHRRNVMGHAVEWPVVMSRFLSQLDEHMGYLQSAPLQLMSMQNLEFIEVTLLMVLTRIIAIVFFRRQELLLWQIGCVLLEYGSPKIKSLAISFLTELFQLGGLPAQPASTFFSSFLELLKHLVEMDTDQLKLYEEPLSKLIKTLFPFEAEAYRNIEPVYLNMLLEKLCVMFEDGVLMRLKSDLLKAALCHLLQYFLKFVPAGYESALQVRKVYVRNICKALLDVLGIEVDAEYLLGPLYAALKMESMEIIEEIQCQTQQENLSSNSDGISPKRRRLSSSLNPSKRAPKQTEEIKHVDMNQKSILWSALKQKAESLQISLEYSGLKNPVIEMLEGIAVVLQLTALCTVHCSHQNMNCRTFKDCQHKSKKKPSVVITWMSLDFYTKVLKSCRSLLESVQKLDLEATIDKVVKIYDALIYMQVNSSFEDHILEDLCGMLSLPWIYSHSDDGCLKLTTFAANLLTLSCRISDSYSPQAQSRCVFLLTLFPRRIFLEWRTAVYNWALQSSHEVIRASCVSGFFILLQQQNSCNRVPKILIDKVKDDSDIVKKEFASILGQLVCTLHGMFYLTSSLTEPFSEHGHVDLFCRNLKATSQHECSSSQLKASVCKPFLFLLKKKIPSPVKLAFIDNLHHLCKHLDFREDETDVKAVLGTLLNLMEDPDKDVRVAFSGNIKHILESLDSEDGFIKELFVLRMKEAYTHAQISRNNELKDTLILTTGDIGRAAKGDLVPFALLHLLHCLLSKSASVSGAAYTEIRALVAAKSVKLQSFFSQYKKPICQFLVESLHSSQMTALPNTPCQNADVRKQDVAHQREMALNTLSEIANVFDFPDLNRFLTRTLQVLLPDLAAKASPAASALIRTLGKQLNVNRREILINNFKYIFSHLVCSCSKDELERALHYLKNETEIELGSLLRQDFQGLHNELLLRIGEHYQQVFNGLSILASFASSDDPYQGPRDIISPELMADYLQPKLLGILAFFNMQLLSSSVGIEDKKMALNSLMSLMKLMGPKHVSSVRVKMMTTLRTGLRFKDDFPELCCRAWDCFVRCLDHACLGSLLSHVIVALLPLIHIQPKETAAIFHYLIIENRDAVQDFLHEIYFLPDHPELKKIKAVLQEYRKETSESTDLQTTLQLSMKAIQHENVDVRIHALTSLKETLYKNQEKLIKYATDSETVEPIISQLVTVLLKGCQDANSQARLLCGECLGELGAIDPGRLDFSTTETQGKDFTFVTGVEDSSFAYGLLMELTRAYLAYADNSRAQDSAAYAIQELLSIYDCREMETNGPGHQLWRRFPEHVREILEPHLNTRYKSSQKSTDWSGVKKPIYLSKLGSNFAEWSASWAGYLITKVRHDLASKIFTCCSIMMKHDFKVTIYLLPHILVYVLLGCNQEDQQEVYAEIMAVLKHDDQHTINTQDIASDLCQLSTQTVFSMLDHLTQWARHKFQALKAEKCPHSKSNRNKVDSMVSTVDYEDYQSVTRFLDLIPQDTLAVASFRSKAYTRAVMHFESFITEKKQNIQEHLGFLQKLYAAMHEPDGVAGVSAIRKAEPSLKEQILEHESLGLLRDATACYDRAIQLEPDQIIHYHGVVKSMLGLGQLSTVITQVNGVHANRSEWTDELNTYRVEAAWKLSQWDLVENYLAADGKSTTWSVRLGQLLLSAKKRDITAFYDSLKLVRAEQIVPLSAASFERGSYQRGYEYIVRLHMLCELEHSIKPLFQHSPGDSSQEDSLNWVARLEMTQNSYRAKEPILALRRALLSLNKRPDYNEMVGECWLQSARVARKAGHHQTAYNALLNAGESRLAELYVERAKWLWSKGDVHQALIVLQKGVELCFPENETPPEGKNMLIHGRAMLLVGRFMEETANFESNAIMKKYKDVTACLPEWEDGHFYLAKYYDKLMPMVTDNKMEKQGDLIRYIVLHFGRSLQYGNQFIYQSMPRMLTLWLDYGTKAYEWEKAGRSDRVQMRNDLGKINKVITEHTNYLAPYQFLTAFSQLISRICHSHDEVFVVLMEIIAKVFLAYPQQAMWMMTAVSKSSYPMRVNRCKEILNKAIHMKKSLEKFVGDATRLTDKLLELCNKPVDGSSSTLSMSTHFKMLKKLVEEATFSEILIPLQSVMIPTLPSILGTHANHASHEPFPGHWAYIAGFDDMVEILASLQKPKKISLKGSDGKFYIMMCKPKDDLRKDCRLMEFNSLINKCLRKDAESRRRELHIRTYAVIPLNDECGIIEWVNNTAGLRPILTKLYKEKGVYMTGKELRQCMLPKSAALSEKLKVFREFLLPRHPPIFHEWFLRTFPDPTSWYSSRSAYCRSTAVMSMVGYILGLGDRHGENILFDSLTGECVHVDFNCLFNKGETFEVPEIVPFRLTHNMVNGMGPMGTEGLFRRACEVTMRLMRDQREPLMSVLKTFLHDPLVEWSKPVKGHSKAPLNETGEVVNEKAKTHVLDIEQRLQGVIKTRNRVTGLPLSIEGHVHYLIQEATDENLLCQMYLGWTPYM

This assay concerns the target T1, full-length ATR (Homo sapiens, UniProt Q13535).
T1 construct: in the presence of 5 nM full-length ATR
The experiment in a line: ATR Inhibition Assay (radioactive-phosphate incorporation). Type of assay: biochemical. As to conditions: Ki(app); 5 nM full-length ATR, 10 μM ATP, 800 μM target peptide, 25° C. In short, it runs like this:
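Buffer was 50 mM Tris/HCl pH 7.5, 10 mM MgCl2, 1 mM DTT, with 5 nM enzyme, 10 μM [γ-33P]ATP and 800 μM target peptide at 25 °C. Compound was pre-incubated 10 min before ATP start, and the reaction was stopped after 24 h. Phosphocellulose filter capture; Ki(app) came from non-linear regression of background-corrected initial rates.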
On to `CCS(=O)(=O)N1CC=C(c2cnc(N)c(-c3nc4cc(C)ccc4[nH]3)n2)CC1` [Compound I-157, 5-(1-(ethylsulfonyl)-1,2,3,6-tetrahydropyridin-4-yl)-3-(5-methyl-1H-benzo[d]imidazol-2-yl)pyrazin-2-amine], for which the Ki was less than 100 nM.
With `Nc1ncc(N2CCN(S(=O)(=O)C3CCCC3)CC2)nc1C(=O)Nc1ccccn1` [Compound I-248, 3-amino-6-(4-(cyclopentylsulfonyl)piperazin-1-yl)-N-(pyridin-2-yl)pyrazine-2-carboxamide] the figure was 100 to 1000 nM.
`Nc1ncc(C2=CCN(S(=O)(=O)c3ccccc3)CC2)nc1-c1nc2ccccc2[nH]1` [Compound I-210, 3-(1H-benzo[d]imidazol-2-yl)-5-(1-(phenylsulfonyl)-1,2,3,6-tetrahydropyridin-4-yl)pyrazin-2-amine]: the Ki was less than 100 nM.
The same measure for `CCS(=O)(=O)N1CCN(c2cnc(N)c(-c3nnc(-c4ccc(F)cc4)o3)n2)CC1` [Compound I-292, 5-(4-ethylsulfonylpiperazin-1-yl)-3-[5-(4-fluorophenyl)-1,3,4-oxadiazol-2-yl]pyrazin-2-amine]: 100 to 1000 nM; for `CC(=O)NC1CN(c2cnc(N)c(-c3nnc(-c4ccccc4)o3)n2)C1` [Compound I-282, N-(1-(5-amino-6-(5-phenyl-1,3,4-oxadiazol-2-yl)pyrazin-2-yl)azetidin-3-yl)ethanamide]: 1000 to 10000 nM.
With `Nc1ncc(N2CC[C@H](NC(=O)COc3ccccc3)C2)nc1-c1nc2ccccc2[nH]1` [Compound I-205, (S)-N-(1-(5-amino-6-(1H-benzo[d]imidazol-2-yl)pyrazin-2-yl)pyrrolidin-3-yl)-2-phenoxyethanamide] the figure was 100 to 1000 nM; with `CN(C)S(=O)(=O)N1CCN(c2cnc(N)c(C(=O)Nc3ccccn3)n2)CC1` [Compound I-81, 3-amino-6-(4-(N,N-dimethylsulfamoyl)piperazin-1-yl)-N-(pyridin-2-yl)pyrazine-2-carboxamide], 1000 to 10000 nM.
Regarding `Cc1ccc2nc(-c3nc(N4CCCC(N(C)C)C4)cnc3N)[nH]c2c1` (centres unmarked) [Compound I-51, 5-(3-(dimethylamino)piperidin-1-yl)-3-(6-methyl-1H-benzo[d]imidazol-2-yl)pyrazin-2-amine], the Ki lay in the range of 1000 to 10000 nM.
Take `CCS(=O)(=O)N1CC2CN(c3cnc(N)c(-c4nnc(-c5ccc(CNC)cc5)o4)n3)CC2C1` (centres unmarked) [Compound I-332, 5-(2-Ethylsulfonyl-1,3,3a,4,6,6a-hexahydropyrrolo[3,4-c]pyrrol-5-yl)-3-[5-[4-(methylaminomethyl)phenyl]-1,3,4-oxadiazol-2-yl]pyrazin-2-amine]: the Ki is 1000 to 10000 nM.
On to `Nc1ncc(C2=CCN(C(=O)c3ccccn3)CC2)nc1-c1nc2ccccc2[nH]1` [Compound I-139, (4-(5-amino-6-(1H-benzo[d]imidazol-2-yl)pyrazin-2-yl)-5,6-dihydropyridin-1(2H)-yl)(pyridin-2-yl)methanone], for which the Ki was less than 100 nM.
Regarding `CNCc1ccc(-c2nnc(-c3nc(N4CCC(N5CCCC5=O)CC4)cnc3N)o2)cc1` [Compound I-364, 1-(1-(5-Amino-6-(5-(4-((methylamino)methyl)phenyl)-1,3,4-oxadiazol-2-yl)pyrazin-2-yl)piperidin-4-yl)pyrrolidin-2-one], the Ki fell in the range of 100 to 1000 nM.
With `Cn1cnc(S(=O)(=O)N2CC=C(c3cnc(N)c(-c4nnc(-c5ccccc5)o4)n3)CC2)c1` [Compound I-120, 5-(1-(1-methyl-1H-imidazol-4-ylsulfonyl)-1,2,3,6-tetrahydropyridin-4-yl)-3-(5-phenyl-1,3,4-oxadiazol-2-yl)pyrazin-2-amine] the figure was less than 100 nM; with `COCCOC(=O)N1CC=C(c2cnc(N)c(-c3nc4ccccc4[nH]3)n2)CC1` [Compound I-243, 2-methoxyethyl 4-(5-amino-6-(1H-benzo[d]imidazol-2-yl)pyrazin-2-yl)-5,6-dihydropyridine-1(2H)-carboxylate], 100 to 1000 nM.
On to `Cc1ccc2nc(-c3nc(N4CCn5cnnc5C4)cnc3N)[nH]c2c1` [Compound I-281, 5-(5,6-dihydro-[1,2,4]triazolo[4,3-a]pyrazin-7(8H)-yl)-3-(6-methyl-1H-benzo[d]imidazol-2-yl)pyrazin-2-amine], for which the Ki fell in the range of 1000 to 10000 nM.
With `Nc1ncc(N2CCCC2=O)nc1-c1nc2ccccc2[nH]1` [Compound I-75, 1-(5-amino-6-(1H-benzo[d]imidazol-2-yl)pyrazin-2-yl)pyrrolidin-2-one] the figure was 1000 to 10000 nM; with `CCC(=O)N1CCN(c2cnc(N)c(-c3nnc(-c4ccc(CNC)cc4)o3)n2)CC12CC2` [Compound I-363, 1-(7-(5-Amino-6-(5-(4-((methylamino)methyl)phenyl)-1,3,4-oxadiazol-2-yl)pyrazin-2-yl)-4,7-diazaspiro[2.5]octan-4-yl)propan-1-one], 100 to 1000 nM; with `Nc1ncc(N2CCN(C(=O)N3CCCCC3)CC2)nc1-c1nnc(-c2ccccc2)o1` [Compound I-231, (4-(5-amino-6-(5-phenyl-1,3,4-oxadiazol-2-yl)pyrazin-2-yl)piperazin-1-yl)(piperidin-1-yl)methanone], 100 to 1000 nM.
With `CCS(=O)(=O)N1CCN(c2cnc(N)c(-c3nnc(-c4cccc(N)c4)[nH]3)n2)CC1` [Compound I-57, 3-(5-(3-aminophenyl)-4H-1,2,4-triazol-3-yl)-5-(4-(ethylsulfonyl)piperazin-1-yl)pyrazin-2-amine] the figure was 100 to 1000 nM; with `Nc1ncc(C2=CCN(C(=O)C3CC3)CC2)nc1-c1nc2ccccc2[nH]1` [Compound I-284, [4-[5-amino-6-(1H-benzimidazol-2-yl)pyrazin-2-yl]-3,6-dihydro-2H-pyridin-1-yl]-cyclopropyl-methanone], less than 100 nM.
With `COC(=O)N1CCN(c2cnc(N)c(C(=O)Nc3ccccn3)n2)CC1` [Compound I-242, methyl 4-(5-amino-6-(pyridin-2-ylcarbamoyl)pyrazin-2-yl)piperazine-1-carboxylate], the Ki lay within 1000 to 10000 nM.
The same measure for `CNCc1ccc(-c2nnc(-c3nc(N4CCC(c5ccccc5)C4)cnc3N)o2)cc1` (centres unmarked) [Compound I-316, 3-[5-[4-(Methylaminomethyl)phenyl]-1,3,4-oxadiazol-2-yl]-5-(3-phenylpyrrolidin-1-yl)pyrazin-2-amine]: less than 100 nM.
As to `CNCc1ccc(-c2nnc(-c3nc(C4CC4C(=O)N(C)CCOC)cnc3N)o2)cc1` (centres unmarked) [Compound I-377], the Ki was in the range of 1000 to 10000 nM.
Consider `Nc1ncc(N2CCN(Cc3ccccc3)CC2)nc1-c1nnc(-c2ccccc2)o1` [Compound I-300, 5-(4-benzylpiperazin-1-yl)-3-(5-phenyl-1,3,4-oxadiazol-2-yl)pyrazin-2-amine], for which the Ki lay in the range of 1000 to 10000 nM.
The same measure for `CC(C)C(=O)N1CCN(c2cnc(N)c(C(=O)Nc3ccccn3)n2)CC1` [Compound I-68, 3-amino-6-(4-(2-methylpropanoyl)piperazin-1-yl)-N-(pyridin-2-yl)pyrazine-2-carboxamide]: 100 to 1000 nM.
For `COCC(=O)N1CC=C(c2cnc(N)c(-c3nc4ccccc4[nH]3)n2)CC1` [Compound I-138, 1-(4-(5-amino-6-(1H-benzo[d]imidazol-2-yl)pyrazin-2-yl)-5,6-dihydropyridin-1(2H)-yl)-2-methoxyethanone], the Ki is less than 100 nM.
`Nc1ncc(N2CCN(C(=O)C3CCCCC3)CC2)nc1-c1nnc(-c2ccccc2)o1` [Compound I-251, (4-(5-amino-6-(5-phenyl-1,3,4-oxadiazol-2-yl)pyrazin-2-yl)piperazin-1-yl)(cyclohexyl)methanone]: the Ki was 100 to 1000 nM.
